Results reported in paper PMC7156724, “Potent BRD4 inhibitor suppresses cancer cell-macrophage interaction” (Nature Communications, 2020).
“And” between values parts separate entries of the source, which are not always exact repeats. Equal entries are not always repeated.

Tests used:
[1] = system: HaCAT cells (immortalized human keratinocytes); test: MTS assay of non-cancerous cells; format: cell-based; set-up: Cell viability (Sup Fig.4a) / Cell viability (Sup Fig.4b) / Cell viability (Sup Fig.4b, 72h): unit not given here; conditions: for Cell viability (Sup Fig.4b): 48h
Method: (§1) Supplementary Figure 4. […] (a-c) MTS
(§2) assays of HaCAT cells (immortalized human keratinocytes) treated with the indicated concentration of
(§3) NHWD-870 for 24h (a), 48h (b) or 72h (c). Data are presented as mean ± SEM of 5 independent experiments.
(§4) p values were calculated from two-tailed, unpaired t tests. Source data are provided as a Source Data file.
(§5) 37℃, 5% CO2. […]

[2] = MTS assay of non-cancerous cells; format: cell-based, human; set-up: Cell viability (Sup Fig.4a) / Cell viability (Sup Fig.4b) / Cell viability (Sup Fig.4b, 72h): unit not given here; conditions: human
Method: as §1, §2, §3, §4, §5

TAMs = test: Transwell co-culture of pretreated A2780 cells and TAMs with CSF1 or anti-CSF1R antibodies; format: cell-based, mouse; conditions: co-culture with pretreated A2780 cells, MCSF-1 10ng/ml where added
Method: Fig. 6 CSF1/CSF1R signaling is critical for the tumor inhibitory effects of NHWD-870 and CSF1 induced ovarian cancer growth depends on macrophages. a Number of TAMs after treatment with the indicated concentration of CSF1 for 48 h. Data are presented as mean ± SEM from three independent experiments. b–d Schematics of the experiments (b). A2780 cells (pre-treated with DMSO or 100 nM NHWD-870 for 48 h) were seeded into the top chamber (transwell size: 0.4 μm), and TAMs (Mac, 40,000 cells per 24-well) in medium with PBS or 10 ng/ml CSF1 (c), or 50 ng/ml IgG or anti-CSF1R antibodies (d), were seeded into the bottom chamber. Shown are quantification of TAMs (c, d). Data are presented as mean ± SEM from three independent experiments. e Representative western blot analysis of A2780 cells stably transfected with CSF1 or empty vector (EV). Selected from three independent experiments. f Schematics of the animal experiments using an orthotopic mouse OC model, established by intraperitoneally injecting 1 × 10^6 (g–j) or 2 × 10^6 (k–m) human A2780 cells overexpressing CSF1 or control into female recipient nude mice. Mice were then treated with/without liposomal clodronate (LC) for 45 days (g–j) or treated with/without NHWD-870 (PO, QD, 3 mg/kg) for 37 days (k–m). g Increased mouse body weight was measured at the indicated time points (day 0-45 after LC treatment). h–j Net tumor weight (h), ascitic fluid volumes (i) tumor implantations in peritoneum, omentum and pevic cavity (j) were measured at day 45 from LC treatment. k–m Net tumor weight (k), ascitic fluid volumes (l) tumor implantations in peritoneum, omentum and pevic cavity (m) were measured at day 37 after NHWD-870 treatment. For g–m, data are presented as mean ± SEM from five different mice. p values were calculated using two-tailed, unpaired t tests in this figure. n.s, not significant; *p < 0.05; **p < 0.01; and ***p < 0.001. Source data are provided as a Source Data file.
CD45^+CD11b^+F4/80^+ TAMs were isolated from peritoneal metastasis of A2780 tumor-bearing mice and cultured in RPMI-1640 supplemented with 10% FBS, 1% penicillin/streptomycin, and 0–50 ng/ml CSF1 (R&D Systems) as indicated according to standard protocols. In the cancer cell-macrophage co-culture experiments, CSF1 was not added. In the transwell (Corning, pore size, 0.4 μm) co-culture experiments, tumor cells were placed into the upper chamber, and TAMs were seeded into the lower chamber.

[3] = system: PI3K/AKT1 and ERK phosphorylation; test: Western blot of p-PI3K, p-AKT1 and p-ERK in TAMs; format: cell-based, mouse
Method: Supplementary Figure 13. NHWD-870 inhibited CSF1/CSF1R signaling pathw ay to reduce TAM […]
TA M s ( 2 ×10^5 cells) (treated with or without 10 ng/ml CSF1 and 100 nM NHWD-870 for 48 h) were seeded into the 6-well bottom chamber, in the presence or absence of A2780 cells (pre-treated with or without 100 nM NHWD-870 for 48 h) seeded into the top chamber (transwell size: 0.4μm). Shown are schematics of the experiment and representative western blot analysis of the indicated proteins (a), and quantification of the relative levels of p-PI3K, p-AKT1 and p-ERK over their respective total protein (b). Data are presented as mean ± SEM from 3 independent experiments. p values were calculated using two-tailed, unpaired t tests. n.s, no significant; **, p<0.01; ***, p<0.001. Source data are provided as a Source Data file. […]
4. Protein extraction and w estern blot anal ysis. Freshly dissected unfixed tissue was homogenized in lysis buffer. The lysates were centrifuged at 13,000g for 10 minutes at 4°C. Supernatants were collected and determined with a Bradford Protein Assay kit (Bio-Rad, Hercules, CA). The cell lysates were subjected to SDS-PAGE followed by immunoblotting (Immobilon P; Millipore, Milford, MA) with specific antibodies followed by detection using an enhanced chemilumine scence kit (Amersham Life Science, Arlington Heights, IL). […]

[4] = A2780&NHWD-870, individual replicates
[5] = CSF1&NHWD-870, individual replicates

Cc1nnn(C)c1-c1cnc2c3c4cnn(C)c4ccc3n([C@H](c3ccccc3)C3CCOCC3)c2c1 [NHWD-870]
effect on growth of HaCAT cells ([1]; 24h, 48h or 72h): minimal effects
Cell viability (Sup Fig.4a) ([1]; 24h, 8 nM, 0.008 µM): 96.6 and 101.8 and 89.4 and 88.3
Cell viability (Sup Fig.4a) ([1]; 24h, 16 nM, 0.016 µM): 98.4 and 107.6 and 95.8
Cell viability (Sup Fig.4a) ([1]; 24h, 32 nM, 0.032 µM): 83 and 93.4 and 105.5 and 99.6 and 95.5
Cell viability (Sup Fig.4a) ([1]; 24h, 64 nM, 0.064 µM): 112.7 and 111.1 and 101.6 and 109.8
Cell viability (Sup Fig.4a) ([1]; 24h, 250 nM, 0.25 µM): 109.5 and 106.5 and 97.6 and 108.3
Cell viability (Sup Fig.4a) ([1]; 24h, 500 nM, 0.5 µM): 119.6 and 110.7 and 109.3 and 105
Cell viability (Sup Fig.4a) ([1]; 24h, 1000 nM, 1 µM): 106.7 and 106.8 and 109.4 and 111.5
Cell viability (Sup Fig.4b) ([1]; 8 nM, 0.008 µM): 89.1 and 94.5 and 96.5
Cell viability (Sup Fig.4b) ([1]; 16 nM, 0.016 µM): 85.3 and 85.9 and 93.1 and 85.1
Cell viability (Sup Fig.4b) ([1]; 32 nM, 0.032 µM): 88.3 and 88.2
Cell viability (Sup Fig.4b) ([1]; 64 nM, 0.064 µM): 94.7 and 90.4 and 88.4
Cell viability (Sup Fig.4b) ([1]; 250 nM, 0.25 µM): 97.7 and 92.7 and 91.5
Cell viability (Sup Fig.4b) ([1]; 500 nM, 0.5 µM): 88 and 95 and 91.6 and 82.3
Cell viability (Sup Fig.4b) ([1]; 1000 nM, 1 µM): 88.6 and 81.5 and 80.9 and 84.8
Cell viability (Sup Fig.4b, 72h) ([1]; 8 nM, 0.008 µM): 90.9 and 86.4 and 92.1 and 95.1
Cell viability (Sup Fig.4b, 72h) ([1]; 16 nM, 0.016 µM): 95.9 and 89.1 and 93.1
Cell viability (Sup Fig.4b, 72h) ([1]; 32 nM, 0.032 µM): 88.4 and 97.6 and 92.8 and 90.1
Cell viability (Sup Fig.4b, 72h) ([1]; 64 nM, 0.064 µM): 99.6 and 89.5 and 92.9
Cell viability (Sup Fig.4b, 72h) ([1]; 250 nM, 0.25 µM): 93.7 and 89.8 and 88
Cell viability (Sup Fig.4b, 72h) ([1]; 500 nM, 0.5 µM): 98.2 and 93.6 and 82.4 and 89.4
Cell viability (Sup Fig.4b, 72h) ([1]; 1000 nM, 1 µM): 74 and 86.3 and 92.4
viability at 24 h, 0.008 µM ([2]; HaCAT cells (immortalized human keratinocytes), 24h, 8 nM, read-out: Cell viability (Sup Fig.4a)): 92.2%
viability at 24 h, 0.016 µM ([2]; HaCAT cells (immortalized human keratinocytes), 24h, 16 nM, read-out: Cell viability (Sup Fig.4a)): 110%
viability at 24 h, 0.064 µM ([2]; HaCAT cells (immortalized human keratinocytes), 24h, 64 nM, read-out: Cell viability (Sup Fig.4a)): 103%
viability at 24 h, 0.25 µM ([2]; HaCAT cells (immortalized human keratinocytes), 24h, 250 nM, read-out: Cell viability (Sup Fig.4a)): 104%
viability at 24 h, 0.5 µM ([2]; HaCAT cells (immortalized human keratinocytes), 24h, 500 nM, read-out: Cell viability (Sup Fig.4a)): 100%
viability at 48 h, 0.032 µM ([2]; HaCAT cells (immortalized human keratinocytes), 48h, 32 nM, read-out: Cell viability (Sup Fig.4b)): 91%
viability at 48 h, 0.064 µM ([2]; HaCAT cells (immortalized human keratinocytes), 48h, 64 nM, read-out: Cell viability (Sup Fig.4b)): 83.9%
viability at 48 h, 0.25 µM ([2]; HaCAT cells (immortalized human keratinocytes), 48h, 250 nM, read-out: Cell viability (Sup Fig.4b)): 88.5%
viability at 48 h, 0.5 µM ([2]; HaCAT cells (immortalized human keratinocytes), 48h, 500 nM, read-out: Cell viability (Sup Fig.4b)): 86.7%
viability at 48 h, 1 µM ([2]; HaCAT cells (immortalized human keratinocytes), 48h, 1000 nM, read-out: Cell viability (Sup Fig.4b)): 87.1%
viability at 72 h, 0.008 µM ([2]; HaCAT cells (immortalized human keratinocytes), 72h, 8 nM, read-out: Cell viability (Sup Fig.4b, 72h)): 99.5%
viability at 72 h, 0.016 µM ([2]; HaCAT cells (immortalized human keratinocytes), 72h, 16 nM, read-out: Cell viability (Sup Fig.4b, 72h)): 90.2%
viability at 72 h, 0.032 µM ([2]; HaCAT cells (immortalized human keratinocytes), 72h, 32 nM, read-out: Cell viability (Sup Fig.4b, 72h)): 86.9%
viability at 72 h, 0.064 µM ([2]; HaCAT cells (immortalized human keratinocytes), 72h, 64 nM, read-out: Cell viability (Sup Fig.4b, 72h)): 89.6%
viability at 72 h, 0.25 µM ([2]; HaCAT cells (immortalized human keratinocytes), 72h, 250 nM, read-out: Cell viability (Sup Fig.4b, 72h)): 78.9%
viability at 72 h, 0.5 µM ([2]; HaCAT cells (immortalized human keratinocytes), 72h, 500 nM, read-out: Cell viability (Sup Fig.4b, 72h)): 87.1%
viability at 72 h, 1 µM ([2]; HaCAT cells (immortalized human keratinocytes), 72h, 1000 nM, read-out: Cell viability (Sup Fig.4b, 72h)): 78.4%
viability at 24 h, 1 µM ([2]; HaCAT cells (immortalized keratinocytes), 24h, 1000 nM, read-out: Cell viability (Sup Fig.4a)): 108%
viability at 48 h, 0.008 µM ([2]; HaCAT cells (immortalized keratinocytes), 48h, 8 nM, read-out: Cell viability (Sup Fig.4b)): 86.6%
viability at 48 h, 0.016 µM ([2]; HaCAT cells (immortalized keratinocytes), 48h, 16 nM, read-out: Cell viability (Sup Fig.4b)): 89.9%
Number of TAMs (Fig.6c) (TAMs; time 0): 5
Number of TAMs (Fig.6c) (TAMs; time 24): 5.5 and 5.2 and 6.2
Number of TAMs (Fig.6c) (TAMs; time 48): 6.8 and 6.3 and 7.4
Number of TAMs (Fig.6c) (TAMs; time 72): 8.9 and 9.5 and 8.5
p-AKT1 (Sup Fig.13b quantification) [3, 4]: 2.1 and 1.52 and 1.57
p-ERK (Sup Fig.13b quantification) [3, 4]: 1.19 and 1.05 and 0.87
p-PI3K (Sup Fig.13b quantification) [3, 4]: 2.9 and 1.18 and 1.69
p-AKT1 (Sup Fig.13b quantification) [3, 5]: 6.88 and 4.52 and 4.09
p-ERK (Sup Fig.13b quantification) [3, 5]: 3.28 and 4.19 and 4.11
p-PI3K (Sup Fig.13b quantification) [3, 5]: 2.92 and 3.3 and 3.78
CSF1-induced PI3K/AKT1 and ERK phosphorylation in TAMs ([3]; direct treatment of TAMs, 100 nM, 48 h): not affected
PI3K/AKT1 and ERK activation in TAMs co-cultured with A2780 cells ([3]; pre-treatment of A2780 cells, 100 nM, 48 h): blocked
